Consider 4 compounds from publication PMC10808720 (Frontiers in Pharmacology, 2024).

Each structure is given as a SMILES string. “Also recorded” adds a separate entry of the source. Read-outs that look alike come from different tables or passages of the source.

For one series, the system named is HAdV5-GFP. The experiment in a line: microbe, parasite or virus in culture. In kind it is cell-based, human adenovirus (HAdV5). Particulars: for Selectivity index: CC50 (A549) vs IC50 plaque assay (HAdV5). The method, then: Compounds were tested using low MOI infections (0.06 vp/cell), initially at concentrations of 10 μM and subsequently in a dose-response assay ranging from 10 μM to 2.44 nM in a plaque assay. Briefly, 293β5 cells were seeded in 6-well plates at a density of 1 × 10^6 cells per well in duplicate for each condition. When the cells reached 80%–90% confluency, they were infected with HAdV5-GFP and rocked for 2 h at 37°C. After the incubation, the inoculum was removed and the cells were washed once with PBS. Cells were then carefully overlaid with equal parts of 4 mL/well 1.6% ([…]) Difco Agar Noble (Becton, Dickinson & Co., Sparks, MD, USA) and 2× Eagle’s Minimum Essential Medium (EMEM; BioWhittaker) supplemented with 2×penicillin/streptomycin, 2× L-glutamine, and 10% FBS. The mixture also contained the compounds in the concentration ranges described above. Following incubation for 7 days at 37°C, plates were scanned with a Typhoon FLA 9000 imager (GE Healthcare Life Sciences) and the formed plaques were quantified with ImageJ ([Schneider et al., 2012]). Plaque counting was performed to calculate the 50% inhibitory concentration (IC50) of each compound using the statistical software GraphPad Prism 6.

Series [1] is described as follows: Cytotoxicity assay (AlamarBlue). In kind it is cell-based, Human. Particulars: human, A549 cells; for CC50: 48 h. The protocol:
The cytotoxicity of the molecules was analyzed using the commercial kit AlamarBlue® (Invitrogen, Ref. DAL1025) according to the manufacturer’s instructions. Briefly, A549 cells were seeded at a density of 5 × 10^3 cells per well in 96-well plates, and decreasing serial dilutions of each molecule were diluted in 100 μL of DMEM starting at 200 μM. The cells were then incubated at 37°C for 48 h following the manufacturer’s protocol. The cytotoxic concentration 50% (CC50) value was obtained using the statistical software GraphPad Prism 6. The assay was performed in duplicate.
In general terms: Alamar Blue is a resazurin reagent that responds to reducing activity.

Series [2] deals with wild-type HAdV5. The experiment in a line: HAdV yield reduction (burst) assay, TCID50 end-point dilution. In kind it is cell-based, human adenovirus (HAdV5). To be noted: 10-fold IC50 concentration, TCID50/ml compound vs. DMSO, A549 cells, 48 h, MOI 100 vp/cell. The method, then:
A549 cells (1.5 × 10^5 cells/well in a 24-well plate) were incubated 24 h in 500 μL of complete DMEM and they were infected with wild-type HAdV5 (MOI 100 vp/cell) when more than 90% of confluency was observed. Infected cells were incubated for 48 h at 37°C in 500 μL of either complete DMEM containing 10-fold IC50 concentration of compounds obtained in the plaque assay or the same volume of DMSO (positive control). After 48 h, the cells were harvested and subjected to three rounds of freeze/thaw. Serial dilutions of the clarified lysates were titrated against A549 cells (3 × 10^4 cells/well in a 96-well plate) and TCID50 values were calculated using an end-point dilution method ([Reed and Muench, 1938]).

The next series deals with p53/MDM2 complex. The format is cell-based, Human. To be noted: HAdV5-infected A549 cells, 24 h; for concentration of p53/MDM2 complexes, high vs low cell density: 10-fold IC50. The protocol:
A549 cells were seeded at a density of 1.5 × 10^5 cells per well in a 24-well plate at a high density and 3.75 × 10^4 cells per well at a low density. […] The culture medium was then aspirated and washed with 1X with cold PBS. Later, 200 μL RIPA Lysis Buffer (1% v/v NP-40, 20 mM Tris-HCL pH 7.4, 5 mM Sodium Pyrophosphate, 5 mM EDTA) with freshly added proteinase inhibitor cocktail (Thermo Fisher Scientific) was added to each well and swirled to distribute it evenly. Cells were then scraped and collected to incubate them for 30 min on ice and finally centrifuged at 13,000 × g for 5 min at 4°C. […] This assay was performed in triplicate.

Series [3] has as its system wild-type HAdV5. Description: HAdV DNA quantification by qPCR. In kind it is cell-based, human adenovirus (HAdV5). To be noted: 10-fold IC50; A549; 24 h; vs DMSO control. The method, then:
For DNA quantification, A549 cells (1.5 × 10^5 cells/well in a 24-well plate) were incubated for 24 h in 500 μL of complete DMEM and were infected with wild-type HAdV5 (MOI 100 vp/cell) after observing more than 90% of confluency. Infected cells were incubated for 24 h at 37°C in 500 μL of either complete DMEM containing 10-fold IC50 concentration of the compounds obtained in the plaque assay or the same volume of DMSO (positive control). All samples were prepared in duplicate. After 24 h of incubation at 37°C, DNA was purified from the cell lysate with the E.Z.N.A.® Tissue DNA Kit (Omega Bio-tek, Norcross, GA) following the manufacturer’s instructions. PCR conditions, primers, and probes were as described by [Henke-Gendo et al. (2012)]. Human glyceraldehyde-3-phosphate dehydrogenase (GAPDH) gene was used as an internal control. GAPDH oligonucleotide sequences and conditions were as previously described by [Rivera et al. (2004)].
For quantification, gene fragments from hexons, and GAPDH were cloned into the pGEM-T Easy vector (Promega) and known concentrations of the template were used to generate a standard curve in parallel for each experiment, as previously reported ([Sanchez-Cespedes et al., 2016]). All assays were performed in thermal cycler LightCycler® 96 System (Roche).
In general terms: In qPCR the cycle at which signal appears reflects the starting amount.

The subject of the next series is HCMV. The experiment in a line: Impact on HCMV replication (qPCR of HCMV DNA in HFF). In kind it is cell-based, human cytomegalovirus. Particulars: 2-fold IC50 (HAdV plaque assay), 72 h. The protocol: To test the anti-HCMV activity of these rotenolone-related compounds, human foreskin fibroblasts (HFF; ATCC, Manassas, VA) were seeded in a 24-well plate (8.3 × 10^4 cells/well), infected with HCMV (MOI 0.05 vp/cell), and incubated in complete DMEM in the presence of either 2-fold IC50 concentration of each compound obtained in the plaque assay against HAdV or the same volume of DMSO (positive control) in duplicate. The cells were incubated for 72 h at 37°C and 5% CO2 and HCMV DNA was purified from the cell lysate using E.Z.N.A Tissue DNA Kit (Omega Biotek, Norcross, GA, USA) following the manufacturer’s instructions. The qPCR primers, conditions, and protocols were the same as previously reported ([Mazzotta et al., 2020b]).

The subject of another series is HAdV5-RFP. The experiment in a line: Anti-HAdV activity after knockdown of RPS14 by siRNA (RFP expression). In kind it is cell-based, human adenovirus (HAdV5). Particulars: RPS14 knockdown 293β5 cells; 10-fold IC50; 48 h. The protocol: An siRNA approach was used to evaluate the antiviral activity of these molecules in the absence of RPS14. According to the supplier’s protocol (Effectene Transfection Reagent, QIAGEN, Valencia, CA), 293β5 cells at 1.5 × 10^4 cells/well were seeded in a clear bottom 96-well microplate a day before transfection. On the day of transfection, 0.1 µg siRNA (MISSION esiRNA RPS14, SigmaAldrich) was diluted in EC buffer up to 30 µL/well and 0.8 µL/well of the enhancer was added and the mix was incubated for 5 min. Effectene transfection reagent was added and the mix was incubated for 10 min to allow transfection complex formation. The cell layers were washed with 1x PBS and transfection complexes were poured over them. After 6 h of incubation, the transfection complexes were removed and the cells were infected with HAdV5-RFP (MOI 2,000 viral particles/cell) in the presence of a 10-fold IC50 concentration of the compounds obtained in the plaque assay or the same volume of DMSO. Standard infection was induced in the presence of the same concentrations of the compounds (performed in triplicate), and a control without siRNA. Cells, viruses, and compounds were incubated for 48 h at 37°C and 5% CO2. Infection, as measured by HAdV5-mediated RFP expression, was analyzed using a Typhoon 9410 imager (GE Healthcare Life Sciences) and quantified using ImageQuantTL (GE Healthcare Life Sciences).

[4] abbreviates: Human adenovirus sp., 168 h, read-out: IC50 plaque assay.

Broadly, the IC50 is the concentration that gives 50% inhibition. For orientation: CC50 means the concentration that lowers cell viability or growth by half. In the case of `COc1cc2c(cc1OC)[C@@H]1C(=O)c3ccc4c(c3O[C@@H]1CO2)C=CC(C)(C)O4` [Deguelin, (7aS,13aS)-13,13a-Dihydro-9,10-dimethoxy-3,3-dimethyl-3H-bis ([Mennechet et al., 2019])benzopyrano[3,4-b:6′,5′-e]pyran-7-(7aH)-one], the Selectivity index with HAdV5-GFP is listed as 2,429.3. Moreover, the IC50 in the series with HAdV5-GFP (setting [4]) was found to be 0.04 ± 0.01 µM. Moreover, the CC50 in series [1] is 97.2 ± 0.1 µM. Moreover, the “Virus Yield Fold-reduction” value in the series with wild-type HAdV5 [2] is listed as 2.7E+02 ± 19.4 fold; in the series on wild-type HAdV5 [2] (listed as deguelin) it was 270 fold. In addition, in the series with p53/MDM2 complex, the “concentration of p53/MDM2 complexes, high vs low cell density” value is “non among emetine, rotenone, deguelin and tephrosin alter the concentrations”. For the same compound, the “HAdV DNA copy number (de novo synthesis)” value with wild-type HAdV5 [3] was “significant decrease”. In the series with HCMV, the “inhibition of HCMV replication” value was 50%.

Broadly, the inhibition is the change of the read-out against control, counted positive when it falls. In turn, `CC1(C)C=Cc2c(ccc3c2O[C@@H]2COc4cc5c(cc4[C@@H]2C3=O)OCO5)O1` [Millettone] gave a Selectivity index in the series on HAdV5-GFP of 23.8. Further, the IC50 in the series with HAdV5-GFP (setting [4]) came to 4.6 ± 0.54 µM. Further, the inhibition at 10 µM with HAdV5-GFP (Human adenovirus sp., read-out: inhibition of plaque formation) was above 98%. In addition, in series [1], the CC50 is 109 ± 2.2 µM. Also, in the series on HCMV, the “increase of HCMV replication compared with the control treated with DMSO” value is reported as “more than 10 times” and the “inhibition of HCMV replication” value is reported as “did not inhibit”.

In turn, `COc1cc2c(cc1OC)[C@]1(O)C(=O)c3ccc4c(c3O[C@@H]1CO2)C=CC(C)(C)O4` [Tephrosin, hydroxydeguelin] gave a Selectivity index in the series on HAdV5-GFP of 538.9. The half-inhibitory concentration (IC50) in the series with HAdV5-GFP (setting [4]) was 0.07 ± 0.03 µM. Further, in series [1], the half-maximal cytotoxic concentration (CC50) at 48 h came out at 37.7 ± 0.6 µM. For the same compound, the “Virus Yield Fold-reduction” value in the series on wild-type HAdV5 [2] is 2.7E+03 ± 987.3 fold. Besides, in the series with p53/MDM2 complex, the “concentration of p53/MDM2 complexes, high vs low cell density” value was “non among emetine, rotenone, deguelin and tephrosin alter the concentrations”. Further, in the series with HCMV, the “inhibition of HCMV replication” value is on record as 83.4%.

Consider `CC[C@H]1CN2CCc3cc(OC)c(OC)cc3[C@@H]2C[C@@H]1C[C@H]1NCCc2cc(OC)c(OC)cc21` [emetine, reference compound], for which half-maximal inhibition in the series with HAdV5-GFP (Human adenovirus sp.) (IC50) required 0.085 ± 0.019 µM. This compound also came in with a cytotoxic concentration (CC50) in series [1] of 6.17 ± 0.04 µM. For the same compound, in the series with p53/MDM2 complex, the “concentration of p53/MDM2 complexes, high vs low cell density” value was “no differences based on the cell density; also recorded: non among emetine, rotenone, deguelin and tephrosin alter the concentrations”; the “concentration of p53/MDM2 complexes” value was “dramatically reduced”. Further, the “HAdV-mediated RFP expression when no RPS14 was available” value with HAdV5-RFP is listed as “reduced”.
